Measured values from patent publication US5447931A, “New therapeutic use of heterocyclylpiperazines as 5-HT3 agonists and new compounds” (Sanofi, priority 1992, dated 1995).

System: 5-HT3 receptors
Experiment: Bezold-Jarisch effect (reduction of heart rate) in the anesthetized rat, intravenous administration
Type: in vivo, Sprague-Dawley rats
Details: antagonist against the heart rate reduction by compounds of formula (I)

SMILES | inhibition by antagonist of the Bezold-Jarisch effect evoked by compounds of formula (I)
COc1cc(N)c(Cl)cc1C(=O)NC1CN2CCC1CC2 (centres unmarked) [zacopride] | inhibited
CN1[C@@H]2CC[C@H]1C[C@@H](OC(=O)c1c[nH]c3ccccc13)C2 [ICS 205-930] | inhibited
